pIC50: −log10 of the molar value. “Also recorded” adds a separate entry of the source. Like-named read-outs stand apart in the source and are kept apart here.
Tests used:
[1] = system: Splenic T-cells stimulated with ionomycin + PMA; assay: T-cell proliferation assay (ionomycin plus PMA induced T-cell stimulation assay); format: cell-based, mouse
Protocol: Cells were pelleted by centrifugation at 1500 rpm for 8 minutes. Contaminating red cells were removed by treating the pellet with ammonium chloride lysing buffer (GIBCO) for 2 minutes at 4° C. Cold medium was added and cells were again centrifuged at 1500 rpm for 8 minutes. T lymphocytes were then isolated by separation of the cell suspension on nylon wool columns as follows: Nylon wool columns were prepared by packing approximately 4 grams of washed and dried nylon wool into 20 ml plastic syringes. The columns were sterilized by autoclaving at 250° F. for 30 minutes. Nylon wool columns were wetted with warm (37° C.) culture medium and rinsed with the same medium. Washed spleen cells resuspended in warm medium were slowly applied to the nylon wool. The columns were then incubated in an upright position at 37° C. for 1 hour. Non-adherent T lymphocytes were eluted from the columns with warm culture medium and the cell suspensions were spun as above.
The cell suspension was immediately distributed into 96 well flat-bottom microculture plates (Costar) at 200 μl/well. […] The proliferation of T lymphocytes was assessed by measurement of tritiated thymidine incorporation. After 44 hours of culturing, the cells were pulse-labelled with 2 μCi/well of tritiated thymidine (NEN, Cambridge, Mass.). After another 4 hours of incubation, cultures were harvested on glass fiber filters using a multiple sample harvester. Radioactivity of filter discs corresponding to individual wells was measured by standard liquid scintillation counting methods (Betacounter). Mean counts per minute of replicate wells were calculated and the results expressed as percent inhibition of tritiated thymidine uptake (proliferation) as follows: [formula]

[2] = biological target: T1, 31-O-desmethylimmunomycin O-methyltransferase (DIMT) (Streptomyces hygroscopicus, UniProt Q9KID5); assay: S-adenosyl-L-methionine: 31-O-desmethylimmunomycin O-methyltransferase (DIMT) assay; format: biochemical, Streptomyces hygroscopicus var. ascomyceticus
T1 construct: cell-free extract, DEAE-Sepharose pool, or second MonoQ preparation (kinetics)
T1 sequence (Q9KID5 1-260): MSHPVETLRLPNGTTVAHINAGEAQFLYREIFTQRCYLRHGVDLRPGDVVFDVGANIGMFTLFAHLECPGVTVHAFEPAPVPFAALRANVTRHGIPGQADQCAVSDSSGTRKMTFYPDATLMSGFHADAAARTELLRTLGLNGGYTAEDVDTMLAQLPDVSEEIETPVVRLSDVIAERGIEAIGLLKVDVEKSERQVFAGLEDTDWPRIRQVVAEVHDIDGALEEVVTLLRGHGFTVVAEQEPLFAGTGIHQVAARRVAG
Protocol: The assay was carried out in 1 ml. mixture containing 0.025 mM 31-desmethylimmunomycin, 1 mM MgSO4 and different quantities of the enzyme source in 50 mM phosphate buffer, pH 7.5. Reaction was initiated by the addition of 1 nmole of ^14 C-SAM (S-adenosyl-L-[methyl-^14 C] methionine with the specific activity of 46 mCi/mmole. Incubation of the complete mixture was carried out at 34° C. for 20 minutes and the reaction was terminated by the addition of ethyl acetate. Product of the reaction was extracted with 2 ml of ethyl acetate and 1 ml of the extract was used for TLC and HPLC analysis. For the analysis of the radioactive reaction product (immunomycin), the ethyl acetate extract was spiked with the standard immunomycin and subjected to the TLC with a plate having plastic support. The plastic sheet was developed in chloroform:methanol (9:1) and area showing standard immunomycin under UV-light was cut and the radioactivity in the cut-strip was measured. The amount of the product formed was calculated from the measured radioactivity. For the HPLC analysis of the product of the enzyme reaction, several enzymatic reaction mixtures were pooled and the extract was subjected to the TLC analysis as above. The area on the silica gel plate showing the band having an Rf value identical with the standard immunomycin was scraped and eluted with ethyl acetate. The ethyl acetate extract was washed with water, dried under nitrogen and the residue was subjected to the HPLC analysis on Partisil 5-ODS-3 column with acetonitrile:water:phosphoric acid (65:35:0.1) as the eluting solvent. One milliliter fractions were collected and a portion of each fraction was examined for the radioactivity.
Examination of the optimal temperature, pH and metal requirement of the DIMT activity was carried out on the enzyme preparation obtained from DEAE-Sepharose column. For kinetic analysis, a preparation which had been purified through a second MonoQ column chromatography was utilized.

SMILES: CC[C@@H]1C=C2COC1(O)C[C@H](O)[C@@H](C)[C@@H](/C(C)=C/[C@@H]1CC[C@@H](O)[C@H](OC)C1)OC(=O)[C@@H]1CCCCN1C(=O)C(=O)[C@]1(O)O[C@H]([C@@H](OC)C[C@@H](C)C2)[C@@H](OC)C[C@H]1C [Compound II]
- Inhibition of T-cell activation (result in words) [1]: positive inhibition of T-cell activation; also recorded: positive results

SMILES: CC[C@@H]1C=C2COC1(O)C[C@H](O)[C@@H](C)[C@@H](/C(C)=C/[C@@H]1CC[C@@H](O)[C@H](O)C1)OC(=O)[C@@H]1CCCCN1C(=O)C(=O)[C@]1(O)O[C@H]([C@@H](OC)C[C@@H](C)C2)[C@@H](OC)C[C@H]1C [Compound I]
- Activity versus the FK-506 immunosuppressive activity (result in words) [1]: antagonist activity
- Inhibition of T-cell activation (result in words) [1]: positive inhibition of T-cell activation
- Reversal of inhibition of T-cell proliferation by IL2 ([1]; 50 units/ml recombinant IL2 added at the initiation of culture): reversed
- pIC50 ([1]; Mus musculus, T-cell, general range, read-out: IC50, generally in the range): 7.74 to 8.00

SMILES: O=C(O)CN(CCN(CC(=O)O)CC(=O)O)CC(=O)O [EDTA]
- Inhibition of DIMT activity (result in words) [2]: major inhibition
- Inhibition of DIMT activity (result in words) ([2]; crude extract): completely inhibited

SMILES: Nc1ncnc2c1ncn2[C@@H]1O[C@H](CSCC[C@H](N)C(=O)O)[C@@H](O)[C@H]1O [S-adenosyl-homocysteine (SAH), S-adenosyl-homocysteine]
- Inhibition of DIMT activity (result in words) [2]: major inhibition

SMILES: N.N.O=S(=O)(O)O [ammonium sulfate]
- Inhibition of DIMT activity (result in words) ([2]; crude extract): inhibited

SMILES: Nc1ncnc2c1ncn2[C@@H]1O[C@H](C[C@@H](N)CC[C@H](N)C(=O)O)[C@@H](O)[C@H]1O [sinefungin]
- Inhibition of DIMT activity (result in words) [2]: major inhibition

Reference: US5273979A, “C-31 desmethyl FR-900520 cyclic hemiketal immunosuppressant agent” (Merck & Co., Inc., priority 1991, dated 1993)
